Measurements: PubChem BioAssay (NCI)
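Cultured in 96-well plates, cells were exposed to test compound for 48 hours across five concentrations. At the TGI there is no net growth.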 *1 amine or outer side, *2 acyl side, *3 side chain or, on linkers, in order; H or OH if unused. Where a SMILES comes first, the peptide text is derived from it. Bridges are numbered along the chain shown (N, C = ends). [ ]: non-standard residue; d: D form. X59 = COc1c(N[*:1])cccc1C(=O)O[C@H](C(=O)[C@H](C)C(=O)[*:2])C(C)C; X58 = CC(C)C[C@H](C(=O)[*:2])C(C)C(=O)C1CCCN1[*:1]; NMeY = CN[C@@H](Cc1ccc(O)cc1)C(=O)O; Lac = C[C@H](O)C(=O)O

Experiments:
Experiment in all cases: NCI anticancer screen, dose series, 48 h
UACC-62 melanoma = test system: UACC-62 melanoma
TK-10 renal = test system: TK-10 renal
HOP-92 NSCLC = test system: HOP-92 NSCLC
A549 NSCLC = test system: A549 NSCLC
ACHN renal = test system: ACHN renal
SK-OV-3 ovarian = test system: SK-OV-3 ovarian
NCI-H460 lung = test system: NCI-H460 lung

SMILES: Cn1c(-c2cccs2)cc(-c2ccsc2)c1-c1cccs1
- TGI (UACC-62 melanoma): > 100 µM
- TGI (TK-10 renal): > 100 µM
- TGI (HOP-92 NSCLC): > 100 µM
- TGI (A549 NSCLC): > 100 µM
- TGI (ACHN renal): > 100 µM
- TGI (SK-OV-3 ovarian): > 100 µM
- TGI (NCI-H460 lung): > 100 µM

SMILES: CC1(C)CC2C(/C1=N/O)C1(C)CCCC2(C)C1O (stereo not given)
- TGI (UACC-62 melanoma): > 100 µM
- TGI (TK-10 renal): > 100 µM
- TGI (HOP-92 NSCLC): > 100 µM
- TGI (A549 NSCLC): > 100 µM
- TGI (ACHN renal): > 100 µM
- TGI (SK-OV-3 ovarian): > 100 µM
- TGI (NCI-H460 lung): > 100 µM

SMILES: CN(C)CCN=C1Nc2ccccc2C(=O)N2CSCC12 (stereo not given)
- TGI (UACC-62 melanoma): > 100 µM
- TGI (TK-10 renal): > 100 µM
- TGI (A549 NSCLC): > 100 µM
- TGI (ACHN renal): > 100 µM
- TGI (SK-OV-3 ovarian): > 100 µM
- TGI (NCI-H460 lung): > 100 µM

SMILES: COc1ccc(C[C@H]2C(=O)O[C@H](C)[C@H](NC(=O)[C@@H](CC(C)C)C(C)C(=O)C3CCCN3C(=O)[C@H](C)O)C(=O)Nc3cccc(c3OC)C(=O)O[C@@H](C(C)C)C(=O)[C@H](C)C(=O)N[C@@H](CC(C)C)C(=O)N3CCC[C@H]3C(=O)N2C)cc1 (stereo not given in full) (H-[Lac][X58]T[X59]LP[NMeY](Me); ester 3-C)
- TGI (UACC-62 melanoma): > 12.5 µM
- TGI (TK-10 renal): > 12.5 µM
- TGI (HOP-92 NSCLC): > 12.5 µM
- TGI (A549 NSCLC): > 12.5 µM
- TGI (ACHN renal): > 12.5 µM
- TGI (SK-OV-3 ovarian): > 12.5 µM
- TGI (NCI-H460 lung): > 12.5 µM

SMILES: COc1cc(/C=C2\C(=O)N(c3ccc(NC(C)=O)cc3)C(c3ccccc3)S2(=O)=O)cc(OC)c1OC (stereo not given)
- TGI (UACC-62 melanoma): > 100 µM
- TGI (TK-10 renal): > 100 µM
- TGI (HOP-92 NSCLC): > 100 µM
- TGI (A549 NSCLC): > 100 µM
- TGI (ACHN renal): > 100 µM
- TGI (SK-OV-3 ovarian): > 100 µM
- TGI (NCI-H460 lung): > 100 µM

SMILES: CCOC(=O)CON=c1c2ccccc2ccc2ccccc12
- TGI (UACC-62 melanoma): > 100 µM
- TGI (TK-10 renal): > 100 µM
- TGI (HOP-92 NSCLC): > 100 µM
- TGI (A549 NSCLC): > 100 µM
- TGI (ACHN renal): > 100 µM
- TGI (SK-OV-3 ovarian): > 100 µM
- TGI (NCI-H460 lung): > 100 µM

SMILES: Cc1ncc([N+](=O)[O-])n1CCNC(=O)Cn1ccnc1[N+](=O)[O-]
- TGI (UACC-62 melanoma): > 100 µM
- TGI (TK-10 renal): > 100 µM
- TGI (A549 NSCLC): > 100 µM
- TGI (ACHN renal): > 100 µM
- TGI (SK-OV-3 ovarian): > 100 µM
- TGI (NCI-H460 lung): > 100 µM

SMILES: N#Cc1nc(-c2ccc(-c3nc(C#N)c(N)o3)cc2)oc1N
- TGI (UACC-62 melanoma): > 10 µM
- TGI (TK-10 renal): > 10 µM
- TGI (HOP-92 NSCLC): > 10 µM
- TGI (A549 NSCLC): > 10 µM
- TGI (ACHN renal): > 10 µM
- TGI (SK-OV-3 ovarian): > 10 µM
- TGI (NCI-H460 lung): > 10 µM

SMILES: CCOC(=O)C(C)c1nc2cc(C(F)(F)F)ccc2[nH]c1=O (stereo not given)
- TGI (UACC-62 melanoma): > 100 µM
- TGI (TK-10 renal): > 100 µM
- TGI (HOP-92 NSCLC): > 100 µM
- TGI (A549 NSCLC): > 100 µM
- TGI (ACHN renal): > 100 µM
- TGI (SK-OV-3 ovarian): > 100 µM
- TGI (NCI-H460 lung): > 100 µM

SMILES: COc1ccc2oc(=O)c(-c3csc(-c4ccccc4)n3)cc2c1
- TGI (UACC-62 melanoma): > 100 µM
- TGI (TK-10 renal): 50.6 µM
- TGI (HOP-92 NSCLC): 56 µM
- TGI (A549 NSCLC): > 100 µM
- TGI (ACHN renal): > 100 µM
- TGI (SK-OV-3 ovarian): 38 µM
- TGI (NCI-H460 lung): > 100 µM

SMILES: C=CC[C@@]12CCC(=O)C=C1CCCC2=O
- TGI (UACC-62 melanoma): > 100 µM
- TGI (TK-10 renal): > 100 µM
- TGI (HOP-92 NSCLC): > 100 µM
- TGI (A549 NSCLC): > 100 µM
- TGI (ACHN renal): > 100 µM
- TGI (SK-OV-3 ovarian): > 100 µM
- TGI (NCI-H460 lung): > 100 µM

SMILES: COc1cc(/C=C2\CC(C)C/C(=C\c3ccc(O)c(OC)c3)C2=O)ccc1O (stereo not given)
- TGI (UACC-62 melanoma): 4.01 µM
- TGI (TK-10 renal): 15.8 µM
- TGI (HOP-92 NSCLC): 10.4 µM
- TGI (A549 NSCLC): 17.8 µM
- TGI (ACHN renal): 10.2 µM
- TGI (SK-OV-3 ovarian): 12.4 µM
- TGI (NCI-H460 lung): 9.45 µM

SMILES: O=[N+]([O-])c1cc2ccc1OCc1cccc(n1)COc1ccc(cc1[N+](=O)[O-])C=NCCCCCCCCN=C2
- TGI (UACC-62 melanoma): > 100 µM
- TGI (TK-10 renal): > 100 µM
- TGI (HOP-92 NSCLC): > 100 µM
- TGI (A549 NSCLC): > 100 µM
- TGI (ACHN renal): > 100 µM
- TGI (NCI-H460 lung): > 100 µM

SMILES: CC(C)(C)OC(=O)NC(Cc1ccc(OCc2ccccc2)cn1)C(=O)O (stereo not given)
- TGI (TK-10 renal): > 100 µM
- TGI (HOP-92 NSCLC): > 100 µM
- TGI (A549 NSCLC): > 100 µM
- TGI (ACHN renal): > 100 µM
- TGI (NCI-H460 lung): > 100 µM

SMILES: Brc1ccc(N=Nc2ccc3ccccc3n2)cc1
- TGI (UACC-62 melanoma): 43.5 µM
- TGI (TK-10 renal): 56.6 µM
- TGI (HOP-92 NSCLC): > 100 µM
- TGI (A549 NSCLC): > 100 µM
- TGI (ACHN renal): 31.2 µM
- TGI (SK-OV-3 ovarian): 49.6 µM
- TGI (NCI-H460 lung): 26.4 µM

SMILES: COc1ccc(OC2OC(CO)C(O)C(O)C2O)cc1 (stereo not given)
- TGI (UACC-62 melanoma): > 100 µM
- TGI (TK-10 renal): > 100 µM
- TGI (A549 NSCLC): > 100 µM
- TGI (ACHN renal): > 100 µM
- TGI (SK-OV-3 ovarian): > 100 µM
- TGI (NCI-H460 lung): > 100 µM

SMILES: [O-]/[N+](=N/c1ncc(-c2ccccc2)cn1)c1ncc(-c2ccccc2)cn1
- TGI (UACC-62 melanoma): > 100 µM
- TGI (TK-10 renal): > 100 µM
- TGI (HOP-92 NSCLC): > 100 µM
- TGI (A549 NSCLC): > 100 µM
- TGI (ACHN renal): > 100 µM
- TGI (SK-OV-3 ovarian): > 100 µM
- TGI (NCI-H460 lung): > 100 µM

SMILES: CCOC(=O)CNC(=O)CNC(=O)CNC(=O)CNNc1c(OCc2ccccc2)c(=O)c1=O
- TGI (UACC-62 melanoma): > 100 µM
- TGI (TK-10 renal): > 100 µM
- TGI (A549 NSCLC): > 100 µM
- TGI (ACHN renal): > 100 µM
- TGI (SK-OV-3 ovarian): > 100 µM

SMILES: C=C(C)CCN(C(=O)OC(C)(C)C)c1cc(C(C)C)co1
- TGI (UACC-62 melanoma): > 100 µM
- TGI (TK-10 renal): > 100 µM
- TGI (HOP-92 NSCLC): 61 µM
- TGI (A549 NSCLC): > 100 µM
- TGI (ACHN renal): > 100 µM
- TGI (SK-OV-3 ovarian): > 100 µM

SMILES: CC(=O)c1c2c(cc3c1CC1(C3)Cc3cc4c(c(C(C)=O)c3C1)CCCC4)CCCC2
- TGI (UACC-62 melanoma): > 100 µM
- TGI (TK-10 renal): > 100 µM
- TGI (HOP-92 NSCLC): > 100 µM
- TGI (A549 NSCLC): > 100 µM
- TGI (ACHN renal): > 100 µM
- TGI (SK-OV-3 ovarian): > 100 µM
